Laboratory results reported in US6436682B1, “Luciferases, fluorescent proteins, nucleic acids encoding the luciferases and fluorescent proteins and the use thereof in diagnostics, high throughput screening and novelty items” (Prolume, Ltd., priority 1998, dated 2002).
Like-named read-outs stand apart in the source and are kept apart here.

T1: Renilla luciferase (Renilla reniformis, UniProt P27652)
T1 sequence (P27652 1-311): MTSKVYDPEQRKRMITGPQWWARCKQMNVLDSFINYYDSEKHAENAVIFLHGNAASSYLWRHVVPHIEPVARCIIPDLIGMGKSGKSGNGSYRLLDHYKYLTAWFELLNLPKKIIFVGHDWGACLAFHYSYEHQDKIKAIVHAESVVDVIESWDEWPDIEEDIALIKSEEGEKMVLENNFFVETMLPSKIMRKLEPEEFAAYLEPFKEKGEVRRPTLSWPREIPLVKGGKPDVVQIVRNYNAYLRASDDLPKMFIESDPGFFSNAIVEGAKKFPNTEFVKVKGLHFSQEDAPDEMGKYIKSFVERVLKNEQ

B1: Renilla mulleri GFP: green fluorescent protein of Renilla mulleri, 238 amino acids, SEQ ID No. 16 (protein, listed as Renilla mulleri)
chain: MSKQILKNTCLQEVMSYKVNLEGIVNNHVFTMEGCGKGNILFGNQLVQIRVTKGAPLPFAFDIVSPAFQYGNRTFTKYPNDISDYFIQSFPAGFMYERTLRYEDGGLVEIRSDINLIEDKFVYRVEYKGSNFPDDGPVMQKTILGIEPSFEAMYMNNGVLVGEVILVYKLNSGKYYSCHMKTLMKSKGVVKEFPSYHFIQHRLEKTYVEDGGFVEQHETAIAQMTSIGKPLGSLHEWV
modifications: Renilla mulleri Green Fluorescent Protein (GFP)

Assays:
[1] = molecular target: T1, Renilla luciferase; conditions: cited from earlier work
[2] = type: physicochemical
From the text: Coelenterazine is not terribly soluble in non-irritant vehicles. Coelenterazine is soluble to at least to a concentration of 200 micrograms/mL in a solution of 2% (w/v) PEG 400 containing about 0.8% (w/v) NaCl. Although this solution is slightly hypertonic, it is not an irritant for vehicle purposes.

[3] = test system: mice; test: Repeated i.p. administration, gross signs of toxicity in behavior; type: in vivo; conditions: 1 mg/kg i.p., daily administration for three days
Method: […] Mice are examined over the course of the study for any gross signs of toxicity as evidenced in their behavior. At the end of the one-week period, blood is collected by cardiac puncture immediately prior to sacrifice. Animals are sacrificed and ten different tissue samples are removed post mortem from each animal. Isolated tissues are fixed, stained, blocked and sectioned. The pathology of the tissue samples are analyzed and the toxicology data are compiled.

[4] = test system: HeLa cells; test: Functional expression of Renilla mulleri GFP in mammalian cells; type: cell-based; conditions: 30 micrograms pcDNA-Renilla mulleri GFP DNA, 37° C., 8 hours, CMV promoter
From the text: HeLa cells were transfected with the plasmid pcDNA3.1(+) containing Renilla mulleri GFP under the control of a CMV promoter (construct No. B(1) as described above). […]
The fluorescence was localized to pairs of cells that were undergoing, or apparently had recently undergone, a single round of cell-division. […] This is in contrast to the Aequorea GFP, which folds inefficiently into a functional form under the physiological conditions.
Filters (470/40 excitation filter, 495 excitation dichroic filter and 525/50 emission filter) used in visualization of R. mulleri GFP fluorescence in HeLa cells were the Endo GFP filter set sold by Chroma.

[5] = Renilla luciferase, in the presence of Renilla GFP
[6] = Renilla luciferase, without GFP

| Molecule | bioluminescence quantum yield [1, 5] | bioluminescence quantum yield [1, 6] | peak of emitted light ([1]; luciferase, upon addition of GFP) | solubility [2] | gross behavior changes [3] | increase in the amount of light emitted upon addition of GFP ([1]; Renilla luciferase, with versus without GFP) | fluorescence of transfected cells [4] |
| --- | --- | --- | --- | --- | --- | --- | --- |
| O=C(Cc1ccc(O)cc1)NC1N=CC(c2ccccc2)=NC1Cc1ccccc1 (stereo not drawn) [coelenterazine of formula (V)] | 2.3% | about 0.012% | 509 nm | – | – | – | – |
| coelenterazine | 13% | 6.9% | – | ≥ 200 micrograms/mL | no gross behavior changes | nearly two-fold | – |
| B1 | – | – | – | – | – | – | highly fluorescent |
